Like-named read-outs stand apart in the source and are kept apart here.

We go through two compounds from paper PMC3978495, “Synthesis and Preliminary Evaluation of a 2-Oxoquinoline Carboxylic Acid Derivative for PET Imaging the Cannabinoid Type 2 Receptor” (Pharmaceuticals, 2014).

Series [1] can be described thus: In vitro stability in mouse plasma. The note with it: 37 °C, 40 min. Type of series: in vitro ADME. The method, then: (§1) To test the plasma stability of the radioligand, 10 µL (4 MBq) of [^11C]KP23 solution were added to phosphate buffer (300 µL, 4 mM NaH2PO4/Na2HPO4, 155 mM NaCl, pH 7.4), mouse and rat plasma (300 µL), respectively. The mixture was vortexed and four aliquots of 70 µL were incubated at 37 °C. Ice cold acetonitrile (100 µL) was added to stop the enzymatic reactions at different time points (0, 10, 20 and 40 min). After centrifugation (10,000 g, 3 min), the supernatant was passed through a filter (0.45 µm, Minisart SRP 4, Sartorius Stedim Biotech, Goettingen, Germany) and analyzed by UPLC.

Series [2] is described as follows: In vitro stability in rat plasma. In kind it is in vitro ADME. As to conditions: 37 °C, 40 min. The method, then: as §1
The target in series [3] is T1, CB2 in mouse spleen slices (Mus musculus, UniProt P47936).
T1 construct: performed on 20 µm tissue slices (rat/mouse spleen) adsorbed to SuperFrost Plus slides; from tissue; host or cells: mouse spleen slices (20 µm)
Description: In vitro autoradiography on mouse spleen slices. In kind it is binding. How it is done: (§2) In vitro autoradiography with [^11C]KP23 was performed on 20 µm tissue slices (rat/mouse spleen) adsorbed to SuperFrost Plus slides. Slices were thawed (10 min) on ice before pre-incubation with incubation buffer (50 mM TRIS/HCl, pH 7.4, containing 5% BSA) at 4 °C for 10 min. Excess solution was carefully removed and the tissue slices were dried in a ventilated hood for 10 min. Then slides were incubated with 0.6 or 0.2 nM [^11C]KP23 alone or together with specific CB2 agonist (GW405833, 1 µM) in incubation buffer. After incubation for 15 min at RT in a humid chamber, slides were washed twice with ice cold washing buffer (50 mM TRIS/HCl, pH 7.4, 1% BSA, 5% EtOH) for 2 min each and dipped twice in water. Dried slides were exposed to a phosphor imager plate for 30 min and the plate was scanned in a BAS5000 reader (Fujifilm, Dielsdorf, Switzerland).

Series [4] in a line: In vivo dynamic PET imaging in Wistar rats. Also on record: species or system rat. How it is done: PET scanning was performed with the GE VISTA eXplore PET/CT tomograph (Sedecal, Madrid, Spain). The scanner is characterized by high sensitivity (absolute central point source sensitivity of 4% for the […] energy windows) and an axial field of view of 4.8 cm. Male Wistar rats (278 ± 2 g, n = 2) were immobilized by isoflurane inhalation and the tracer was injected into a tail vein on the tomographic bed. Tracer accumulation in the spleen or brain were recorded by dynamic one-bed position PET scans over 60 min starting with the injection of 13 respectively 40 MBq (0.05 to 0.15 nmol) of [^11C]KP23. PET data was reconstructed by 3-dimensional FORE/2-dimensional OSEM in user-defined time frames with a voxel size of 0.3875 × 0.3875 × 0.775 mm. Singles and random corrections but no attenuation correction were applied. Image files were evaluated with the software PMOD v3.4 (PMOD Technologies Inc., Zurich, Switzerland). Time activity curves (TACs) of brain regions were generated with the implemented rat brain region of interest (ROI) template and TACs of the abdominal region with the respective ROIs generated by the PMOD segmentation tool. Spleen, liver and background TACs were confirmed by analysis of manually drawn regions of interest. Standardized uptake values (SUV) were calculated as tissue activities (Bq/cm^3), normalized to the injected dose per body weight (Bq/g).

Series [5] in a line: In vitro stability in phosphate buffer (PBS). In kind it is physicochemical. The note with it: PBS pH 7.4, 37 °C, 40 min. How it is done: as §1
The target in series [6] is T2, CB2 in rat spleen slices (Rattus norvegicus, UniProt Q9QZN9).
T2 construct: performed on 20 µm tissue slices (rat/mouse spleen) adsorbed to SuperFrost Plus slides; from tissue; host or cells: rat spleen slices (20 µm)
T2 sequence (Q9QZN9 1-360): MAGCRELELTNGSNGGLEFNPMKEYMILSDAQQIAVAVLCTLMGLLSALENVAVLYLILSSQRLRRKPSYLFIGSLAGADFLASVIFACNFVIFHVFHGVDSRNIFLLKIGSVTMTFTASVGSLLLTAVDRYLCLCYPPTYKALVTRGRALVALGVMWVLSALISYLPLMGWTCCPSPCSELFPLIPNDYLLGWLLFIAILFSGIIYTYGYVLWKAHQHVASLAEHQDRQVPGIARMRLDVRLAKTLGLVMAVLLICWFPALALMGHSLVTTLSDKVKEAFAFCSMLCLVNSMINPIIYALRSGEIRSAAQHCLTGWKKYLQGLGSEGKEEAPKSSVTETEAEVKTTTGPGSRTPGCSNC
Description: In vitro autoradiography on rat spleen slices. In kind it is binding. How it is done: as §2

For series [7] the following is noted: rat, in vivo, iv; for percentage of parent tracer radioactivity in blood plasma: Wistar. The method, then: [^11C]KP23 was administered intravenously to a restrained Wistar rat (413 g) by tail vein injection (ca. 160 MBq). The animal was sacrificed by decapitation 30 min p.i. and blood and urine were collected. Whole blood was collected in heparin-coated tubes (BD Vacutainers, Plymouth, UK) and centrifuged at 5,000 g for 5 min, 4 °C. The proteins of the supernatant plasma and urine were precipitated by addition of an equal volume of acetonitrile and centrifuged at 5,000 g for another 5 min. The supernatants were filtered and analyzed by UPLC. For the determination of in vivo radiometabolites at 15 min p.i. blood samples were withdrawn from the tail vein opposite to the injection site.

For series [8], the target named is hCB1. The note with it: reported data; read-out: reported binding affinity towards CB1; cited from earlier work.
Series [9] concerns the target hCB2. The note with it: reported data; read-out: reported binding affinity towards human CB2; cited from earlier work.
Series [10] concerns the target T3, human CB1 (hCB1) (Homo sapiens, UniProt P21554).
T3 construct: purchased PerkinElmer, Waltham, MA, USA; host or cells: CHO-K1 cells (stably transfected), membrane preparation
Nature of the series: Competition binding assay with [3H]CP-55,940, membranes of CHO-K1 cells transfected with hCB1. As to conditions: three independent experiments, [3H]CP-55,940 1.4 nM, read-out: binding affinity (Ki) towards CB1. How it is done:
All samples were prepared in triplicates.

Series [11] has as its target human CB2 (hCB2) (Homo sapiens, UniProt P34972). Nature of the series: Competition binding assay with [3H]CP-55,940, membranes of CHO-K1 cells transfected with hCB2.
Description: Frozen membrane preparations from CHO-K1 cells transfected with human CB1 (hCB1) and CB2 (hCB2), respectively (PerkinElmer, Waltham, MA, USA), were thawed on ice and diluted to a final protein concentration of 1 µg/mL in assay buffer (50 mM TRIS/HCl, 1 mM EDTA (Applichem, Darmstadt, Germany), 3 mM MgCl2, pH 7.4, containing 0.05% bovine serum albumin, BSA). […] All samples were prepared in triplicates. After 90 min, 3 mL ice cold assay buffer was added and samples were immediately filtered through Whatman GF/C filters (pre-soaked in 0.05% polyethylenimine) and washed twice with 3 mL ice cold assay buffer.

T1 sequence (P47936 whole entry): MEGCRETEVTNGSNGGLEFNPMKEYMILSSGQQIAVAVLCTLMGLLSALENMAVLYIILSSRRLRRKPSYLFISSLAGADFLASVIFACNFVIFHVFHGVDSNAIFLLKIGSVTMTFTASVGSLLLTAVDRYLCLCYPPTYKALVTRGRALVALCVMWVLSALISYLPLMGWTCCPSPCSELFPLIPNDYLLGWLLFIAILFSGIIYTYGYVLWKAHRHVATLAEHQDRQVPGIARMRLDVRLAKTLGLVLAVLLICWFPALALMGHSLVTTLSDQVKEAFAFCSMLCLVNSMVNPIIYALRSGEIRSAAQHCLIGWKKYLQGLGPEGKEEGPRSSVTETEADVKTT
T3 sequence (P21554 whole entry): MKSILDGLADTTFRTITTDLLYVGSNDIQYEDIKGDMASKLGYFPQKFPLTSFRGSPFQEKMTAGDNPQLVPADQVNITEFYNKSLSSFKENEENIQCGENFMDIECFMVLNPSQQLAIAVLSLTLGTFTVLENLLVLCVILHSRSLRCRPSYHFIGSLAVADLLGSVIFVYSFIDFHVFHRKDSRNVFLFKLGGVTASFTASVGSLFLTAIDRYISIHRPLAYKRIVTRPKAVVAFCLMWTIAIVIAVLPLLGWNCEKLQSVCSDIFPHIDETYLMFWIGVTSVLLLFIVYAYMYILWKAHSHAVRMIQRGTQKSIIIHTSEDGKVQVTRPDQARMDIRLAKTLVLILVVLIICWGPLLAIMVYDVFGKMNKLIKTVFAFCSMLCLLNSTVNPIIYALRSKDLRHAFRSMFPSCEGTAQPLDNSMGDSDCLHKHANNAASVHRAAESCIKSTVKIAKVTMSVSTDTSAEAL
Sequence of human CB2 (hCB2) (P34972 whole entry): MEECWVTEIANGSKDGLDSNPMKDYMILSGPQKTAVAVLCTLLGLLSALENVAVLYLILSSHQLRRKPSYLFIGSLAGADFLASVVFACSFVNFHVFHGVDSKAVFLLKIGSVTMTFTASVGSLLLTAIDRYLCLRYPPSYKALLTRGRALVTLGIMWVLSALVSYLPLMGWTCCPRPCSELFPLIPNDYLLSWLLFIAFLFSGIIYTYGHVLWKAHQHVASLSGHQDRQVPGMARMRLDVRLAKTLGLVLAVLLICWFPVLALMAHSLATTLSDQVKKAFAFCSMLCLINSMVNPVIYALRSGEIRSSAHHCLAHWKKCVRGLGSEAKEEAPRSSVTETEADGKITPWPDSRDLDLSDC

As for `CCCCOc1c(O[11CH3])ccc2cc(C(=O)NCC(F)c3ccccc3)c(=O)[nH]c12` (stereo not drawn) [[^11C]KP23], the “plasma stability (radioactive degradation products)” value in series [1] and in series [2] was “No radioactive degradation products” throughout. Also, the “non-specific binding in spleen tissue” value in series [3] (mouse spleen slices (Figure 1 B2), with 1 μM GW4058233) was “relatively high non-specific binding”; in series [6] (rat spleen slices (Figure 1 A2), with 1 μM GW4058233) it was “relatively high non-specific binding”. The “binding to CB2 in autoradiography” value in [3] (mouse spleen slices, 0.6 nM tracer, blocked by excess (1 μM) GW4058233) is recorded as “specific binding”; in series [6] (rat spleen slices, 0.6 nM tracer, blocked by excess (1 μM) GW4058233), “specific binding”. For the same compound, the brain uptake entry in series [4] (healthy Wistar rat, i.v., PET, region of interest TAC analysis) is recorded as “low uptake”. The “initial period of steadily increasing activity concentration in spleen, then slow washout” value in [4] (male, Wistar, rat, in vivo, iv) worked out at 8 min p.i. For the same compound, in series [4] (male, Wistar, rat, in vivo, iv), the “time of radioactivity peak in liver” value is listed as “around 4 min p.i”. Also, the spleen uptake entry in [4] (rat, in vivo, iv) is given as “high spleen uptake”. The “stability (radioactive degradation products)” value in [5] is given as “No radioactive degradation products”. Besides, the “percentage of parent tracer radioactivity in blood plasma” value is 40% in series [7] (15 min) and 25% in series [7] (30 min). For the same compound, the “number of radiometabolites in blood plasma (more hydrophilic than parent)” value in series [7] is given as “two to three”.

In the case of `CCCCOc1c(OC)ccc2cc(C(=O)NCC(F)c3ccccc3)c(=O)[nH]c12` (stereo not drawn) [KP23, 8-butoxy-N-(2-fluoro-2-phenylethyl)-7-methoxy-2-oxo-1,2-dihydroquinoline-3-carboxamide], the Ki is > 10000 nM in series [8], 0.8 ± 0.3 nM in [9], > 10000 nM in series [10] and 6.8 ± 5.8 nM in series [11].
